Experimental data published in PubChem BioAssay (NCI).
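How tested: cells in 96-well plates exposed to compound for 48 hours at five concentrations. TGI is the concentration that stops growth completely.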

Tests used:
Experiment in all cases: NCI anticancer screen, dose series, 48 h
786-0 renal = test system: 786-0 renal
A498 renal = test system: A498 renal
A549 NSCLC = test system: A549 NSCLC
ACHN renal = test system: ACHN renal
BT-549 breast = test system: BT-549 breast
CAKI-1 renal = test system: CAKI-1 renal
CCRF-CEM leukemia = test system: CCRF-CEM leukemia
COLO 205 colon = test system: COLO 205 colon
DU-145 prostate = test system: DU-145 prostate
HCC-2998 colon = test system: HCC-2998 colon
HCT-116 colon = test system: HCT-116 colon
HCT-15 colon = test system: HCT-15 colon
HL-60(TB) leukemia = test system: HL-60(TB) leukemia
HOP-62 NSCLC = test system: HOP-62 NSCLC
HOP-92 NSCLC = test system: HOP-92 NSCLC
HS 578T breast = test system: HS 578T breast
HT29 colon = test system: HT29 colon
IGROV1 ovarian = test system: IGROV1 ovarian
K-562 leukemia = test system: K-562 leukemia
KM12 colon = test system: KM12 colon
LOX IMVI melanoma = test system: LOX IMVI melanoma
M14 melanoma = test system: M14 melanoma
MALME-3M melanoma = test system: MALME-3M melanoma
MCF7 breast = test system: MCF7 breast
MDA-MB-231 breast = test system: MDA-MB-231 breast
MDA-MB-435 = test system: MDA-MB-435
MDA-N = test system: MDA-N
MOLT-4 leukemia = test system: MOLT-4 leukemia
NCI-H226 lung = test system: NCI-H226 lung
NCI-H23 lung = test system: NCI-H23 lung
NCI-H460 lung = test system: NCI-H460 lung
NCI-H522 lung = test system: NCI-H522 lung
NCI/ADR-RES ovarian = test system: NCI/ADR-RES ovarian
OVCAR-3 ovarian = test system: OVCAR-3 ovarian
OVCAR-4 ovarian = test system: OVCAR-4 ovarian
OVCAR-5 ovarian = test system: OVCAR-5 ovarian
OVCAR-8 ovarian = test system: OVCAR-8 ovarian
PC-3 prostate = test system: PC-3 prostate
RXF 393 renal = test system: RXF 393 renal
SF-268 CNS = test system: SF-268 CNS
SF-295 CNS = test system: SF-295 CNS
SF-539 CNS = test system: SF-539 CNS
SK-MEL-2 melanoma = test system: SK-MEL-2 melanoma
SK-MEL-28 melanoma = test system: SK-MEL-28 melanoma
SK-MEL-5 melanoma = test system: SK-MEL-5 melanoma
SK-OV-3 ovarian = test system: SK-OV-3 ovarian
SN12C renal = test system: SN12C renal
SNB-19 CNS = test system: SNB-19 CNS
SNB-75 CNS = test system: SNB-75 CNS
SR leukemia = test system: SR leukemia
SW-620 colon = test system: SW-620 colon
T-47D breast = test system: T-47D breast
TK-10 renal = test system: TK-10 renal
U251 CNS = test system: U251 CNS
UACC-257 melanoma = test system: UACC-257 melanoma
UACC-62 melanoma = test system: UACC-62 melanoma
UO-31 renal = test system: UO-31 renal
EKVX NSCLC = test system: EKVX NSCLC
RPMI-8226 leukemia = test system: RPMI-8226 leukemia

Molecule `O=c1n(-c2ccc(Cl)c(Cl)c2)c(=O)n(-c2ccc(Cl)c(Cl)c2)c(=O)n1-c1ccc(Cl)c(Cl)c1` has a TGI (786-0 renal) of 7.84 µM, a TGI (A498 renal) of 7.52 µM and a TGI (A549 NSCLC) of 6.37 µM. For the same molecule, the TGI (ACHN renal) was 6.43 µM, the TGI (BT-549 breast) was 8.49 µM and the TGI (CAKI-1 renal) was 7.07 µM. The TGI (CCRF-CEM leukemia) was 4.5 µM, the TGI (COLO 205 colon) was 1.95 µM and the TGI (DU-145 prostate) was 12 µM. The TGI (HCC-2998 colon) was > 46.7 µM, the TGI (HCT-116 colon) was 5.5 µM and the TGI (HCT-15 colon) was 6.98 µM. For the same molecule, the TGI (HL-60(TB) leukemia) was > 24.2 µM, the TGI (HOP-62 NSCLC) was 12.4 µM and the TGI (HOP-92 NSCLC) was 2.37 µM. For the same molecule, the TGI (HS 578T breast) was 10 µM, the TGI (HT29 colon) was 10.9 µM and the TGI (IGROV1 ovarian) was 15 µM. For the same molecule, the TGI (K-562 leukemia) was 9.05 µM, the TGI (KM12 colon) was 7.14 µM and the TGI (LOX IMVI melanoma) was 7.16 µM. For the same molecule, the TGI (M14 melanoma) was 13.1 µM, the TGI (MALME-3M melanoma) was > 27.8 µM and the TGI (MCF7 breast) was 5.03 µM. The TGI (MDA-MB-231 breast) was 4.32 µM, the TGI (MDA-MB-435) was 16.5 µM and the TGI (MDA-N) was 8.02 µM. The TGI (MOLT-4 leukemia) was 4.6 µM, the TGI (NCI-H226 lung) was 9.61 µM and the TGI (NCI-H23 lung) was 4.91 µM. It also gave a TGI (NCI-H460 lung) of 10.7 µM, a TGI (NCI-H522 lung) of 11.5 µM and a TGI (NCI/ADR-RES ovarian) of 11.2 µM. For the same molecule, the TGI (OVCAR-3 ovarian) was 13.5 µM, the TGI (OVCAR-4 ovarian) was 12.1 µM and the TGI (OVCAR-5 ovarian) was 8.91 µM. It also gave a TGI (OVCAR-8 ovarian) of 8.7 µM, a TGI (PC-3 prostate) of 4.72 µM and a TGI (RXF 393 renal) of 7.85 µM. For the same molecule, the TGI (SF-268 CNS) was 6.69 µM, the TGI (SF-295 CNS) was 6.62 µM and the TGI (SF-539 CNS) was 2.77 µM. It also gave a TGI (SK-MEL-2 melanoma) of 4.53 µM, a TGI (SK-MEL-28 melanoma) of 15.1 µM and a TGI (SK-MEL-5 melanoma) of 3.44 µM. For the same molecule, the TGI (SK-OV-3 ovarian) was 3.16 µM, the TGI (SN12C renal) was > 31.6 µM and the TGI (SNB-19 CNS) was 14.2 µM. The TGI (SNB-75 CNS) was 7.75 µM, the TGI (SR leukemia) was 8.09 µM and the TGI (SW-620 colon) was 10.2 µM. It also gave a TGI (T-47D breast) of 12.6 µM, a TGI (TK-10 renal) of 17.3 µM and a TGI (U251 CNS) of 10.6 µM. The TGI (UACC-257 melanoma) was 5.73 µM, the TGI (UACC-62 melanoma) was 11.2 µM and the TGI (UO-31 renal) was 9.73 µM.

`COC(=O)C1=C(O)C(C(=O)OC)[C@@]2(O)[C@@H](C(=O)OC)C(c3ccc(OC(=O)/C=C/c4ccccc4)cc3)C[C@@H]1[C@@H]2C(=O)OC` (some centres not stated) was tested, and the TGI (786-0 renal) was 42.5 µM, the TGI (A498 renal) was > 100 µM and the TGI (A549 NSCLC) was > 100 µM. The TGI (ACHN renal) was > 100 µM, the TGI (BT-549 breast) was 60.1 µM and the TGI (CAKI-1 renal) was 73 µM. The TGI (CCRF-CEM leukemia) was > 100 µM, the TGI (COLO 205 colon) was 23.4 µM and the TGI (DU-145 prostate) was > 100 µM. It also gave a TGI (EKVX NSCLC) of 37.7 µM, a TGI (HCC-2998 colon) of 27.3 µM and a TGI (HCT-116 colon) of 17.8 µM. The TGI (HCT-15 colon) was 46.7 µM, the TGI (HL-60(TB) leukemia) was 32.6 µM and the TGI (HOP-62 NSCLC) was > 100 µM. For the same molecule, the TGI (HOP-92 NSCLC) was > 100 µM, the TGI (HS 578T breast) was > 100 µM and the TGI (HT29 colon) was 17 µM. The TGI (IGROV1 ovarian) was > 100 µM, the TGI (K-562 leukemia) was > 100 µM and the TGI (KM12 colon) was > 100 µM. For the same molecule, the TGI (LOX IMVI melanoma) was 5.75 µM, the TGI (M14 melanoma) was 30.5 µM and the TGI (MALME-3M melanoma) was > 100 µM. For the same molecule, the TGI (MCF7 breast) was > 100 µM, the TGI (MDA-MB-231 breast) was 63.6 µM and the TGI (MDA-MB-435) was > 100 µM. For the same molecule, the TGI (MDA-N) was 13.1 µM, the TGI (NCI-H226 lung) was 60.1 µM and the TGI (NCI-H23 lung) was > 100 µM. The TGI (NCI-H460 lung) was 7.8 µM, the TGI (NCI-H522 lung) was > 100 µM and the TGI (NCI/ADR-RES ovarian) was > 100 µM. For the same molecule, the TGI (OVCAR-3 ovarian) was 94 µM, the TGI (OVCAR-4 ovarian) was > 100 µM and the TGI (OVCAR-5 ovarian) was 30.2 µM. The TGI (OVCAR-8 ovarian) was > 100 µM, the TGI (PC-3 prostate) was > 100 µM and the TGI (RXF 393 renal) was 19.1 µM. For the same molecule, the TGI (SF-268 CNS) was > 100 µM, the TGI (SF-295 CNS) was > 100 µM and the TGI (SF-539 CNS) was 8.86 µM. For the same molecule, the TGI (SK-MEL-2 melanoma) was 21.9 µM, the TGI (SK-MEL-28 melanoma) was > 100 µM and the TGI (SK-MEL-5 melanoma) was 28.8 µM. The TGI (SK-OV-3 ovarian) was > 100 µM, the TGI (SN12C renal) was 27.3 µM and the TGI (SNB-19 CNS) was > 100 µM. The TGI (SNB-75 CNS) was > 100 µM, the TGI (SR leukemia) was 22.5 µM and the TGI (SW-620 colon) was > 100 µM. For the same molecule, the TGI (T-47D breast) was > 100 µM, the TGI (TK-10 renal) was 33.6 µM and the TGI (U251 CNS) was 28.5 µM. It also gave a TGI (UACC-257 melanoma) of 25.4 µM, a TGI (UACC-62 melanoma) of 22.6 µM and a TGI (UO-31 renal) of 25.5 µM.

With `COc1nc(-c2c[nH]c3ccccc23)cnc1N` the TGI (786-0 renal) was 36.4 µM, the TGI (A498 renal) was 38.5 µM and the TGI (A549 NSCLC) was > 100 µM. The TGI (ACHN renal) was > 100 µM, the TGI (BT-549 breast) was > 100 µM and the TGI (CAKI-1 renal) was > 100 µM. The TGI (CCRF-CEM leukemia) was 14.8 µM, the TGI (COLO 205 colon) was > 100 µM and the TGI (DU-145 prostate) was 70.1 µM. For the same molecule, the TGI (EKVX NSCLC) was 61.5 µM, the TGI (HCC-2998 colon) was > 100 µM and the TGI (HCT-116 colon) was 55.7 µM. For the same molecule, the TGI (HCT-15 colon) was > 100 µM, the TGI (HL-60(TB) leukemia) was 31.5 µM and the TGI (HOP-62 NSCLC) was > 100 µM. It also gave a TGI (HOP-92 NSCLC) of 23.9 µM, a TGI (HS 578T breast) of 54.2 µM and a TGI (HT29 colon) of 46.2 µM. For the same molecule, the TGI (IGROV1 ovarian) was > 100 µM, the TGI (K-562 leukemia) was > 100 µM and the TGI (KM12 colon) was > 100 µM. The TGI (LOX IMVI melanoma) was > 100 µM, the TGI (M14 melanoma) was 94.8 µM and the TGI (MCF7 breast) was 84.1 µM. The TGI (MDA-MB-231 breast) was 59.1 µM, the TGI (MDA-MB-435) was > 100 µM and the TGI (MDA-N) was 48.9 µM. For the same molecule, the TGI (MOLT-4 leukemia) was 54.9 µM, the TGI (NCI-H460 lung) was > 100 µM and the TGI (NCI/ADR-RES ovarian) was > 100 µM. The TGI (OVCAR-3 ovarian) was > 100 µM, the TGI (OVCAR-4 ovarian) was > 100 µM and the TGI (OVCAR-5 ovarian) was > 100 µM. The TGI (OVCAR-8 ovarian) was > 100 µM, the TGI (PC-3 prostate) was > 100 µM and the TGI (RPMI-8226 leukemia) was 39.6 µM. For the same molecule, the TGI (SF-268 CNS) was > 100 µM, the TGI (SF-295 CNS) was > 100 µM and the TGI (SF-539 CNS) was > 100 µM. For the same molecule, the TGI (SK-MEL-2 melanoma) was 81.6 µM, the TGI (SK-MEL-28 melanoma) was 64.6 µM and the TGI (SK-MEL-5 melanoma) was > 100 µM. The TGI (SK-OV-3 ovarian) was > 100 µM, the TGI (SN12C renal) was 43.5 µM and the TGI (SNB-19 CNS) was > 100 µM. For the same molecule, the TGI (SR leukemia) was 41.1 µM, the TGI (SW-620 colon) was > 100 µM and the TGI (T-47D breast) was 82.8 µM. The TGI (TK-10 renal) was > 100 µM, the TGI (U251 CNS) was > 100 µM and the TGI (UACC-257 melanoma) was 51.7 µM. For the same molecule, the TGI (UACC-62 melanoma) was 33.1 µM and the TGI (UO-31 renal) was > 100 µM.
